Consider one substance from PMC4261997 (British Journal of Pharmacology, 2014).

The target of one test is β2-adrenoceptor. The following applies: read-out: affinity value for the β2-adrenoceptor; ref Baker et al., [2003b]; cited from earlier work.
Test [1] concerns the target T1, human β1-adrenoceptor (Homo sapiens, UniProt P08588). The test is described as follows: Automated live cell BODIPY-TMR-CGP binding, ImageXpress ultra confocal plate reader, CHO-β1 cells. The following applies: 100 nM BOD-CGP; from two-site inhibition curve of the named antagonist, 1 h incubations.
Test [2] concerns the target T1, human β1-adrenoceptor. The test is described as follows: CRE-mediated SPAP transcription reporter gene assay in CHO-β1 cells. The class given is cell-based. As to conditions: for Proportion of low-affinity secondary site (site 2) bound: calculated from affinity values of the functional responses.

T1 sequence (P08588 whole entry): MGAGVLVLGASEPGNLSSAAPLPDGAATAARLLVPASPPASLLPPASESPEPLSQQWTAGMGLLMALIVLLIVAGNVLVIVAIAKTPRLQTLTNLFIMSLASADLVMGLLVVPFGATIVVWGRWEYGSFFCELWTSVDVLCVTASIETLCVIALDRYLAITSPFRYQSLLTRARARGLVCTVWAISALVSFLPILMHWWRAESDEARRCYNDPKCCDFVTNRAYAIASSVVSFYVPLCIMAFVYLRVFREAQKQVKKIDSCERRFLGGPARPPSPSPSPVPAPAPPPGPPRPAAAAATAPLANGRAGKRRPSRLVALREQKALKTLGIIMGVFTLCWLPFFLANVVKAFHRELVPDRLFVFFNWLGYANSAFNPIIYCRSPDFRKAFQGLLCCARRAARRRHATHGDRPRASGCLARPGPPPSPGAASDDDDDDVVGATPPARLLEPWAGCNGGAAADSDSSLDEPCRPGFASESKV

In the case of “Bordifluoropyrromethane-tetramethylrhodamine-(±)CGP 12177 [BODIPY-TMR-CGP]”, the Kd on β2-adrenoceptor is 0.025 µM. Besides, the “Fraction of BOD-CGP bound to the low-affinity binding site (%)” value on human β1-adrenoceptor [1] is 42.8 ± 0.9%. The figures for the “Proportion of low-affinity secondary site (site 2) bound” value on human β1-adrenoceptor [2] (2 nM BODIPY-TMR-CGP) and at human β1-adrenoceptor [2] (20 nM BODIPY-TMR-CGP) were 2% and “circa 17%”, respectively. Also, on human β1-adrenoceptor [2] (% of the maximum cimaterol response, CHO-β1 cells), the “EMAX (% cimaterol)” value is given as 25.6 ± 3.2 %. The pEC50 at human β1-adrenoceptor [2] (agonist stimulation of SPAP transcription, CHO-β1 cells) was found to be 7.12 ± 0.13. Moreover, the “pKD (against CGP 12177)” value on human β1-adrenoceptor [2] (antagonism of CGP 12177 concentration-response curves, low-affinity site 2) was found to be 7.28 ± 0.22. Further, the “pKD (against cimaterol)” value on human β1-adrenoceptor [2] (antagonism of cimaterol concentration-response curves, high-affinity site 1) turned out to be 9.23 ± 0.06. At human β1-adrenoceptor [2] (from partial agonist concentration-response curve, operational model, cimaterol as full agonist, site 2), the “pKA (partial agonism)” value was 7.06 ± 0.13.

For orientation: pEC50 means the EC50 on a negative log10 scale, so that one unit is a factor of ten. Low values mean a large EC50, high ones a small EC50.
